# Test results taken from patent publication US4288595A, “7-(Substituted)-7H-pyrrolo[3,2-f]quinazoline-1,3-diamines” (priority 1980, dated 1981).
# Read-outs that look alike come from different tables or passages of the source.
# Experiments:
# S. aureus 53-180 = test: In vitro antibacterial activity, MIC by agar dilution; assay type: cell-based; conditions: Staphylococcus aureus, 53180; Wellcotest Sensitivity Test Agar, 5% hemolyzed horse blood, 18 hours at 35° C.
# Protocol: (§1) A stock solution or suspension of the test compound at a concentration of 2500 μg/ml. is prepared utilizing a suitable solvent or medium such as aqueous sodium hydroxide, aqueous lactic acid, methyl cellosolve, dimethylsulfoxide, dimethylacetamide, ethylene glycol, dimethylformamide, formamide, propylene glycol, acetone or methanol. Two-fold dilutions are made by adding appropriate amounts of sterile water to the solution or suspension of the test substance. One ml. quantities of each dilution are incorporated into Wellcotest Sensitivity Test Agar fortified with 5% hemolyzed horse blood (9 ml. vol.) in sterile Petri dishes to give plates containing varying concentrations of the test compound. The hardened surfaces of each plate are incubated with the test organism, and the plates are incubated for 18 hours at 35° C.
# S. aureus Smith = test: as above; assay type: cell-based; conditions: Staphylococcus aureus; Wellcotest Sensitivity Test Agar, 5% hemolyzed horse blood, 18 hours at 35° C.
# Protocol: as §1
# E. coli 9637 = test: as above; assay type: cell-based; conditions: read-out: MIC, E. coli 9637
# Protocol: as §1
# K. pneumoniae 10031 = test: as above; assay type: cell-based; conditions: read-out: MIC, K. pneumoniae 10031
# Protocol: as §1
# P. vulgaris 6896 = test: as above; assay type: cell-based; conditions: Proteus vulgaris, Wellcotest Sensitivity Test Agar, 5% hemolyzed horse blood, 18 hours at 35° C.
# Protocol: as §1
# S. paratyphi 11737 = test: as above; assay type: cell-based; conditions: Salmonella enterica, read-out: MIC, S. paratyphi 11737
# Protocol: as §1
# [1] = tested on: Plasmodium berghei KBG 173; test: Blood schizonticidal antimalarial test in mice infected with Plasmodium berghei; conditions: for ED100 / minimal effective dose: Plasmodium berghei, in Mus musculus, sc; for ED100: read-out: Lowest Dose Curing All Mice; for minimal effective dose: read-out: Min. Curing Dose; for ΔMST (increase in mean survival time of treated animals to untreated controls): s.c.
# Protocol: (§2) Test animals weigh from 18 to 22 grams but weight variations in any given experimental or control group are confined to 2-3 grams. All animals in any given test are approximately of the same age. Animals on test are housed in metal-topped plastic cages, given a standard laboratory diet and water ad libitum.
# (§3) Test animals receive an intraperitoneal injection of 0.5 ml. of 1:100 dilution of heparinized heart's blood with a minimum of 90% parasitized cells (4×10^7 cells), drawn from donor mice infected one week earlier with Plasmodium berghei. The donor strain is maintained by weekly passages in separate groups of mice inoculated with a 0.5 ml. of 1:500 dilution of heparinized heart's blood.
# (§4) Test compounds are administered after dissolution or suspension in peanut oil. A single dose is given subcutaneously 72 hours after the mice are infected with Plasmodium berghei. […] Since treatment is withheld for three days to permit the infection to become well established and death occurs in untreated controls within 6-8 days, it is felt that this system presents a candidate compound with the maximum challenge. In order to check factors such as changes in the infectivity of Plasmodium berghei or in the susceptibility of the host or to detect technical errors, a group of infected animals treated with pyrimethamine at dose levels producing definite increases in survival time is included in a positive control in every experiment.
# (§5) In each experiment test compounds are administered in graded dosages. […] Deaths prior to the sixth day, when untreated controls begin to die, are regarded as nonparasitic and become the basis for toxicity evaluations. Treated animals are kept under observation for 60 days. Survivors at the end of this period of time are considered as cured. In calculating mean survival time, toxic deaths and 60-day survivors are not included.
# [2] = as above; conditions: mouse, in vivo, sc
# Protocol: as §2, §3, §4, §5
# N. catarrhalis 8193 = test: In vitro antibacterial activity, MIC by agar dilution; assay type: cell-based; conditions: Wellcotest Sensitivity Test Agar, 5% hemolyzed horse blood, 18 hours at 35° C.
# Protocol: as §1
# [3] = Wellcotest Sensitivity Test Agar, 5% hemolyzed horse blood, 18 hours at 35° C.
# [4] = Escherichia coli, 9637, Wellcotest Sensitivity Test Agar, 5% hemolyzed horse blood, 18 hours at 35° C.
# [5] = Klebsiella pneumoniae, 10031, Wellcotest Sensitivity Test Agar, 5% hemolyzed horse blood, 18 hours at 35° C.
SMILES,MIC (S. aureus 53-180),MIC (S. aureus Smith),"MIC (E. coli 9637; Escherichia coli, 9637, 18 h)","MIC (K. pneumoniae 10031; Klebsiella pneumoniae, 10031, 18 h)",MIC (P. vulgaris 6896),MIC (S. paratyphi 11737; [3]),ED100 ([1]; 1440 h),minimal effective dose ([1]; 1440 h),ΔMST (increase in mean survival time of treated animals to untreated controls) ([1]; dose 5 mg. per kg.),MTD at 1440 h [2],MIC (E. coli 9637; [4]),MIC (K. pneumoniae 10031; [5]),MIC (N. catarrhalis 8193),ΔMST (increase in mean survival time of treated animals to untreated controls) ([1]; dose 160 mg. per kg.),ΔMST (increase in mean survival time of treated animals to untreated controls) ([1]; dose 10 mg. per kg.),MIC (S. paratyphi 11737; 18 h),ED100 ([1]; 336 h),minimal effective dose ([1]; 336 h),ΔMST (increase in mean survival time of treated animals to untreated controls) ([1]; dose 20 mg. per kg.)
"Cc1ccc(C)c(S(=O)(=O)n2ccc3c4c(N)nc(N)nc4ccc32)c1 [Example 2, 7-[(2,5-Dimethylphenyl)Sulfonyl]-7H-Pyrrolo-[3,2-f]Quinazoline-1,3-Diamine]",0.976 µg/mL,7.81 µg/mL,31.3 µg/mL,31.3 µg/mL,62.5 µg/mL,31.3 µg/mL,40 mg/kg,20 mg/kg,6.6,160 mg/kg,–,–,–,–,–,–,–,–,–
Nc1nc(N)c2c(ccc3c2ccn3S(=O)(=O)c2ccc([N+](=O)[O-])cc2)n1 [Example 3],3.9 µg/mL,7.81 µg/mL,–,–,> 250 µg/mL,> 250 µg/mL,–,640 mg/kg,–,–,7.81 µg/mL,3.9 µg/mL,0.12 µg/mL,8.4,–,–,–,–,–
Nc1nc(N)c2c(ccc3c2ccn3S(=O)(=O)c2ccc3ccccc3c2)n1 [Example 4],250 µg/mL,250 µg/mL,–,–,> 250 µg/mL,> 250 µg/mL,–,20 mg/kg,–,–,> 250 µg/mL,> 250 µg/mL,15.6 µg/mL,–,11.4,–,–,–,–
Cc1ccc(S(=O)(=O)n2ccc3c4c(N)nc(N)nc4ccc32)cc1 [Example 5],62.5 µg/mL,125 µg/mL,–,–,> 250 µg/mL,> 250 µg/mL,80 mg/kg,20 mg/kg,–,640 mg/kg,> 250 µg/mL,15.6 µg/mL,1.95 µg/mL,–,5.8,–,–,–,–
COc1ccc(S(=O)(=O)n2ccc3c4c(N)nc(N)nc4ccc32)cc1 [Example 6],7.81 µg/mL,15.6 µg/mL,–,–,> 250 µg/mL,> 250 µg/mL,160 mg/kg,40 mg/kg,–,640 mg/kg,> 250 µg/mL,3.9 µg/mL,0.122 µg/mL,–,–,–,–,–,–
Nc1nc(N)c2c(ccc3c2ccn3S(=O)(=O)c2ccc(Cl)c(Cl)c2)n1 [Example 7],3.9 µg/mL,31.3 µg/mL,–,–,> 250 µg/mL,–,–,–,–,640 mg/kg,> 250 µg/mL,3.13 µg/mL,0.122 µg/mL,–,–,> 250 µg/mL,10 mg/kg,1.25 mg/kg,–
Nc1nc(N)c2c(ccc3c2ccn3S(=O)(=O)c2ccc(Cl)cc2)n1 [Example 8],15.6 µg/mL,62.5 µg/mL,–,–,> 250 µg/mL,> 250 µg/mL,–,–,–,160 mg/kg,> 250 µg/mL,7.81 µg/mL,0.244 µg/mL,–,–,–,40 mg/kg,40 mg/kg,–
Nc1nc(N)c2c(ccc3c2ccn3S(=O)(=O)c2cccc(C(F)(F)F)c2)n1 [Example 9],0.976 µg/mL,3.9 µg/mL,–,–,> 250 µg/mL,> 250 µg/mL,40 mg/kg,10 mg/kg,6.6,160 mg/kg,> 250 µg/mL,3.9 µg/mL,–,–,–,–,–,–,–
Nc1nc(N)c2c(ccc3c2ccn3S(=O)(=O)c2ccccc2)n1 [Example 10],0.976 µg/mL,1.95 µg/mL,–,–,125 µg/mL,15.6 µg/mL,–,40 mg/kg,–,–,3.9 µg/mL,0.488 µg/mL,–,–,–,–,–,–,7.2
CC(=O)Nc1ccc(S(=O)(=O)n2ccc3c4c(N)nc(N)nc4ccc32)cc1 [Example 11],31.3 µg/mL,31.3 µg/mL,–,–,> 250 µg/mL,> 250 µg/mL,20 mg/kg,10 mg/kg,9.3,320 mg/kg,> 250 µg/mL,7.81 µg/mL,–,–,–,–,–,–,–
CC(C)(C)c1ccc(S(=O)(=O)n2ccc3c4c(N)nc(N)nc4ccc32)cc1 [Example 12],3.9 µg/mL,7.81 µg/mL,–,–,> 250 µg/mL,> 250 µg/mL,40 mg/kg,20 mg/kg,–,640 mg/kg,250 µg/mL,1.95 µg/mL,–,–,6.5,–,–,–,–
